# Results reported in ChEMBL document CHEMBL5050844 (2019).
# Columns and labels:
# [1] = Induction of anti-CD3/CD28 antibodies-stimulated human T cell activation at 10 uM assessed fold increase in TNF-alpha secretion measured by ELISA assay; format: functional, T cell line
# [2] = Induction of activation of human CD56+ CD3- NK cells co-cultured with human K562 cells in 1:1 ratio and assessed as increase in IFN-gamma secretion at 2.5 uM measured by ELISA assay; format: functional, Natural killer cell
# [3] = Induction of anti-CD3 antibodies-stimulated human CD8+ T cell activation at 10 uM assessed fold increase in CD69 expression measured by flow cytometry analysis; format: functional, T cell line; further: reference of the scale not given here
# [4] = Induction of anti-CD3 antibodies-stimulated human T cell activation at 10 uM assessed fold increase in GM-CSF secretion measured by ELISA assay; format: functional, T cell line; further: reference of the scale not given here
# [5] = Induction of anti-CD3/CD28 antibodies-stimulated human T cell activation at 0.3 uM assessed fold increase in IL-2 secretion measured by ELISA assay; format: functional, T cell line
# [6] = Induction of anti-CD3/CD28 antibodies-stimulated human CD4+ T cell activation at 1.11 uM assessed fold increase in CD69 expression measured by flow cytometry analysis; format: functional, T cell line
# [7] = Induction of anti-CD3 antibodies-stimulated human CD8+ T cell activation at 10 uM assessed fold increase in cell proliferation measured by flow cytometry analysis; format: functional, T cell line; further: reference of the scale not given here
# [8] = Induction of anti-CD3 antibodies-stimulated human T cell activation at 8 uM assessed fold increase in IL-2 secretion measured by ELISA assay; format: functional, T cell line; further: reference of the scale not given here
# [9] = Induction of anti-CD3 antibodies-stimulated human CD8+ T cell activation at 1.11 uM assessed fold increase in CD69 expression measured by flow cytometry analysis; format: functional, T cell line; further: reference of the scale not given here
# [10] = Induction of anti-CD3/CD28 antibodies-stimulated human T cell activation at 1.11 uM assessed fold increase in TNF-alpha secretion measured by ELISA assay; format: functional, T cell line
# [11] = Induction of anti-CD3/CD28 antibodies-stimulated human CD8+ T cell activation at 1.11 uM assessed fold increase in CD69 expression measured by flow cytometry analysis; format: functional, T cell line
# [12] = Induction of anti-CD3 antibodies-stimulated human T cell activation at 1 uM assessed fold increase in CD25 expression measured by ELISA assay; format: functional, T cell line; further: reference of the scale not given here
# [13] = Induction of anti-CD3 antibodies-stimulated human exhausted T cell activation assessed fold increase in GM-CSF secretion measured by ELISA assay; format: functional, T cell line; further: reference of the scale not given here
# [14] = Induction of anti-CD3 antibodies-stimulated human exhausted T cell activation assessed fold increase in IL-2 secretion measured by ELISA assay; format: functional, T cell line; further: reference of the scale not given here
# [15] = Induction of anti-CD3/CD28 antibodies-stimulated human CD4+ T cell activation at 10 uM assessed fold increase in CD69 expression measured by flow cytometry analysis; format: functional, T cell line
# [16] = Induction of anti-CD3/CD28 antibodies-stimulated human T cell activation at 1 uM assessed fold increase in CD25 expression measured by ELISA assay; format: functional, T cell line
# [17] = Induction of anti-CD3 antibodies-stimulated human T cell activation at 1.11 uM assessed fold increase in TNF-alpha secretion measured by ELISA assay; format: functional, T cell line; further: reference of the scale not given here
# [18] = Induction of activation of human CD56+ CD3- NK cells co-cultured with human K562 cells in 1:1 ratio and assessed as increase in TNF-alpha secretion at 10 uM measured by ELISA assay; format: functional, Natural killer cell
# [19] = Induction of anti-CD3/CD28 antibodies-stimulated human CD4+ T cell activation at 1.11 uM assessed fold increase in cell proliferation measured by flow cytometry analysis; format: functional, T cell line
# [20] = Induction of anti-CD3/CD28 antibodies-stimulated human anergic T cell activation at 0.37 uM assessed fold increase in IFN-gamma secretion measured by ELISA assay; format: functional, T cell line
# [21] = Induction of allogenic human T cell activation at 10 uM assessed fold increase in cell proliferation; format: functional, T cell line
# [22] = Induction of anti-CD3/CD28 antibodies-stimulated human T cell activation at 10 uM assessed fold increase in GM-CSF secretion measured by ELISA assay; format: functional, T cell line
# [23] = Induction of anti-CD3 antibodies-stimulated human CD8+ T cell activation at 1.11 uM assessed fold increase in cell proliferation measured by flow cytometry analysis; format: functional, T cell line; further: reference of the scale not given here
# [24] = Induction of anti-CD3/CD28 antibodies-stimulated human CD4+ T cell activation at 10 uM assessed fold increase in cell proliferation measured by flow cytometry analysis; format: functional, T cell line
# [25] = Induction of anti-CD3 antibodies-stimulated human CD4+ T cell activation at 1.11 uM assessed fold increase in CD69 expression measured by flow cytometry analysis; format: functional, T cell line; further: reference of the scale not given here
# [26] = Induction of anti-CD3/CD28 antibodies-stimulated human T cell activation at 1.11 uM assessed fold increase in IFN-gamma secretion measured by ELISA assay; format: functional, T cell line
# [27] = Induction of anti-CD3 antibodies-stimulated human T cell activation at 8 uM assessed fold increase in CD25 expression measured by ELISA assay; format: functional, T cell line; further: reference of the scale not given here
# [28] = Induction of anti-CD3 antibodies-stimulated human exhausted CD8+ T cell activation assessed fold increase in CTLA4 expression measured by flow cytometry analysis; format: functional, T cell line; further: reference of the scale not given here
# [29] = Induction of activation of human CD56+ CD3- NK cells co-cultured with human K562 cells in 1:1 ratio and assessed as increase in TNF-alpha secretion at 2.5 uM measured by ELISA assay; format: functional, Natural killer cell
# [30] = Induction of anti-CD3/CD28 antibodies-stimulated human T cell activation at 0.3 uM assessed fold increase in CD25 expression measured by ELISA assay; format: functional, T cell line
# [31] = Induction of anti-CD3 antibodies-stimulated human T cell activation at 1.11 uM assessed fold increase in IFN-gamma secretion measured by ELISA assay; format: functional, T cell line; further: reference of the scale not given here
# B cell = assay: Induction of anti-IgM-stimulated human CD20+ B cell activation at 10 to 1000 uM assessed as increase in CD69 expression measured as mean fluorescence intensity AUC by flow cytometry analysis; format: functional, cell-based; conditions: dose 10-1000 µM
# [32] = Induction of anti-CD3/CD28 antibodies-stimulated human T cell activation at 10 uM assessed fold increase in IFN-gamma secretion measured by ELISA assay; format: functional, T cell line
# [33] = Induction of anti-CD3/CD28 antibodies-stimulated human T cell activation at 4 uM assessed fold increase in IL-2 secretion measured by ELISA assay; format: functional, T cell line
# [34] = Induction of anti-CD3 antibodies-stimulated human T cell activation at 10 uM assessed fold increase in IFN-gamma secretion measured by ELISA assay; format: functional, T cell line; further: reference of the scale not given here
# [35] = Induction of activation of human CD56+ CD3- NK cells co-cultured with human K562 cells in 1:1 ratio and assessed as increase in IFN-gamma secretion at 10 uM measured by ELISA assay; format: functional, Natural killer cell
# [36] = Induction of anti-CD3/CD28 antibodies-stimulated human anergic T cell activation at 10 uM assessed fold increase in IFN-gamma secretion measured by ELISA assay; format: functional, T cell line
# [37] = Induction of anti-CD3 antibodies-stimulated human CD4+ T cell activation at 10 uM assessed fold increase in CD69 expression measured by flow cytometry analysis; format: functional, T cell line; further: reference of the scale not given here
Structure (SMILES),fold change (FC) [2],fold change (FC) [3],fold change (FC) [5],fold change (FC) [6],fold change (FC) [7],fold change (FC) [9],fold change (FC) [11],fold change (FC) [12],fold change (FC) [13],fold change (FC) [14],fold change (FC) [15],fold change (FC) [16],fold change (FC) [18],fold change (FC) [19],fold change (FC) [20],fold change (FC) [21],fold change (FC) [23],fold change (FC) [24],fold change (FC) [25],fold change (FC) [28],further results
C[C@H](Cc1nncn1C)c1cccc(N2Cc3c(cc(CN4CC[C@](C)(O)C4)cc3C(F)(F)F)C2=O)c1,2.01,1.401,2.51,1.401,>4,1.201,1.201,>=1.001,>1.61,2.51,1.401,1.31,2.01,>4,<=2.5,2.01,>4,>4,>1.601,>1.61,fold change (FC) [1]: 2.01; fold change (FC) [4]: >4; fold change (FC) [8]: >=0.201; fold change (FC) [10]: 2.01; fold change (FC) [17]: <=1.5; fold change (FC) [22]: >4; fold change (FC) [26]: 3.01; fold change (FC) [27]: >=1.001; fold change (FC) [29]: 2.01; fold change (FC) [30]: 1.01; fold change (FC) [31]: <=2; AUC (B cell): 0.5; fold change (FC) [32]: >4; fold change (FC) [33]: >=7.5; fold change (FC) [34]: <=2; fold change (FC) [35]: >=5; fold change (FC) [36]: >4.01; fold change (FC) [37]: >1.601
Cc1n[nH]c(C)c1-c1cc2c(c(C(F)(F)F)c1)CN(c1cccc(C3(Cc4nncn4C)COC3)c1)C2=O,1.01,1.401,1.01,1.201,>4,1.201,1.201,>=1.001,<=1.4,<=2.5,1.401,1.01,2.01,>4,<=2.5,<=2,3.01,>4,1.401,>1.61,fold change (FC) [1]: 2.01; fold change (FC) [4]: 2.01; fold change (FC) [8]: >=0.201; fold change (FC) [10]: 1.51; fold change (FC) [17]: <=1.5; fold change (FC) [22]: 2.01; fold change (FC) [26]: <=2; fold change (FC) [27]: >=1.001; fold change (FC) [29]: 1.01; fold change (FC) [30]: 1.01; fold change (FC) [31]: <=2; AUC (B cell): 1.01; fold change (FC) [32]: >4; fold change (FC) [33]: >=7.5; fold change (FC) [34]: <=2; fold change (FC) [35]: 2.01; fold change (FC) [36]: >4.01; fold change (FC) [37]: >1.601
C[C@@H](Sc1nncn1C)c1cccc(NC(=O)c2cccc(C(F)(F)F)n2)c1,1.01,1.201,1.01,1.201,>4,1.201,<=1.2,<=0.6,<=1.4,<=2.5,1.401,1.01,1.01,3.01,<=2.5,<=2,3.01,>4,>1.601,<=1.4,fold change (FC) [8]: 0.051; fold change (FC) [27]: 0.601; fold change (FC) [29]: 1.01; fold change (FC) [30]: 1.01; AUC (B cell): < 0.5; fold change (FC) [33]: 1.01; fold change (FC) [35]: 1.01; fold change (FC) [36]: <=2.5; fold change (FC) [37]: 1.401
Cn1cnnc1CC1(c2cccc(N3Cc4c(cc(CN5CCC6(CC6)C5)cc4C(F)(F)F)C3=O)c2)COC1,>=5,1.401,>=7.5,>1.601,>4,1.401,1.201,>=1.001,1.41,2.51,>1.601,1.31,>=5,>4,<=2.5,>3,>4,>4,>1.601,>1.61,fold change (FC) [1]: >4; fold change (FC) [4]: >4; fold change (FC) [10]: 2.01; fold change (FC) [17]: 2.01; fold change (FC) [22]: >4; fold change (FC) [26]: >4; fold change (FC) [29]: >=5; fold change (FC) [30]: 1.31; fold change (FC) [31]: >4; AUC (B cell): > 1.51; fold change (FC) [32]: >4; fold change (FC) [34]: >4; fold change (FC) [35]: >=5; fold change (FC) [36]: >4.01; fold change (FC) [37]: >1.601
COC1CN(Cc2cc3c(c(C(F)(F)F)c2)CN(c2cccc([C@@](C)(F)C(F)(F)c4nncn4C)c2)C3=O)C1,>=5,1.401,2.51,1.201,>4,1.201,1.201,>=1.001,>1.61,<=2.5,1.401,1.31,>=5,>4,<=2.5,<=2,3.01,>4,1.401,>1.61,fold change (FC) [1]: 2.01; fold change (FC) [4]: 2.01; fold change (FC) [8]: >=0.201; fold change (FC) [10]: 1.51; fold change (FC) [17]: <=1.5; fold change (FC) [22]: 2.01; fold change (FC) [26]: <=2; fold change (FC) [27]: >=1.001; fold change (FC) [29]: 2.01; fold change (FC) [30]: 1.01; fold change (FC) [31]: 3.01; fold change (FC) [32]: 2.01; fold change (FC) [33]: >=7.5; fold change (FC) [34]: 3.01; fold change (FC) [35]: >=5; fold change (FC) [36]: >4.01; fold change (FC) [37]: >1.601
